Test results taken from patent US7368570B2, “Organometallic complexes as singlet oxygen sensitizers” (University of Southern California, priority 2003, dated 2008).

What was measured:
[1] = quantum yield for singlet oxygen production from 1O2 luminescence at 1268 nm; type: physicochemical; details: for ΦΔ532 nm: only measured if compounds absorb at 532 nm; for ΦΔ quantum yield for singlet oxygen generation: benzene, air-saturated
From the text: The quantum yields for singlet oxygen production (ΦΔ) were obtained by measuring the intensity of the ^1O2 luminescence signal (λmax=1268 nm). Measurements were taken with 355 and 532 nm excitation (λ), in air-saturated solutions.
The quantum yields were obtained by measuring the intensity of the ^1O2 luminescence signal (λmax=1268 nm), with a liquid nitrogen cooled germanium photodiode. Measurements were taken at 355 and 532 nm excitation, in air-saturated solutions, with TPP, C60 and Perinaphthenone as references. The optical density of the photosensitizer solutions was generally kept between 0.05 and 0.4 at 355 nm excitation wavelength, and 0.03 and 0.2 at 532 nm excitation wavelength.

[2] = singlet oxygen luminescence quenching rate constants; type: physicochemical; details: for kq singlet oxygen quenching rate: Table 3, not marked MeOD, TPP in benzene or chloroform
Protocol: (§1) TPP in benzene or chloroform with OD 0.5-0.7 was used as blank/solvent solution to produce singlet oxygen. The intensity of ^1O2 luminescence signals was measured at 532 nm excitation in air-saturated solutions with a liquid nitrogen cooled germanium photodiode at 1268 nm. 0.02-0.5 mL quencher stock solution of Ir(III) complexes in […] was added to the blank solution. The decay trace of singlet oxygen was then re-measured, and the additions repeated 6-10 times. Singlet oxygen quenching rate constants by the Ir(III) complexes were obtained from the slopes of Stern Volmer plots (See FIG. 7).

[3] = from references (footnote e), cited from earlier work; for λem: emission
[4] = phosphorescence emission properties in solution; type: physicochemical; details: room temperature, from the phosphorescence spectrum
From the text: Table 3 provides quantum yields and singlet oxygen quenching rates for Ir(III) and Pt(II) complexes of this invention. Eem(eV)=the emission maximum energy in eV at room temperature, as determined from the phosphorescence spectrum; ΦPE=the quantum efficiency for emission in solution; τPE=the emission lifetime at room temperature or 77K (in solution).

solubility = type: physicochemical
Protocol: as §1

[5] = oxidation and excited state redox potentials; type: physicochemical
[6] = 355 nm, reference value; cited from earlier work
[7] = 355 nm excitation, Table 3, not marked MeOD

| Eem emission maximum energy [4] [eV] | Molecule | ΦΔ355 nm [1, 7] | ΦΔ532 nm ([1]; 532 nm excitation) | kq singlet oxygen quenching rate [2] | λem [3] [nm] | further results |
| --- | --- | --- | --- | --- | --- | --- |
| – | CC(=Nc1cc(C)cc(C)c1)C(C)=Nc1cc(C)cc(C)c1.[CH3][Pt][CH3] [(CyPh2)PtMe2] | 0 | 0 | (1.5 ± 0.1) × 10^9 M^−1s^−1 | – | – |
| – | [CH3][Pt]1([CH3])[N]2C=CC=c3ccc4c(c32)[N]1C=CC=4 [(Phen)PtMe2] | 0 | 0 | (2.0 ± 0.2) × 10^9 M^−1s^−1 | – | – |
| – | CC1=CC(c2ccccc2)=c2ccc3c4c2[N]1[Pt]([CH3])([CH3])[N]4C(C)=CC=3c1ccccc1 [(PhenPh2)PtMe2] | 0 | 0 | (1.7 ± 0.2) × 10^9 M^−1s^−1 | – | – |
| 2.36 | CC(=O)C=C(C)[O][Ir]([c]1ccccc1-c1nc2ccccc2o1)[c]1ccccc1-c1nc2ccccc2o1 [(bo)2Ir(acac)] | 0.76 ± 0.06 | – | (1.8 ± 0.3) × 10^5 M^−1s^−1 | 525 | ΦPE quantum efficiency for emission in solution [3]: 0.25 |
| – | [CH3][Pt][CH3].c1ccc(-c2ccccn2)nc1 [(bpy)PtMe2] | 0 | 0 | (2.4 ± 0.1) × 10^9 M^−1s^−1 | – | – |
| – | c1ccc(-c2cccc[c]2[Ir]([c]2ccccc2-c2ccccn2)[c]2ccccc2-c2ccccn2)nc1 [(ppy)3Ir, Tris-(2-phenylpyridinato, N, C^2′) iridium (III)] | 0.92 ± 0.07 | – | – | – | solubility remark (solubility; Table 3, not marked MeOD): Not soluble; E(Sen^+/*) excited state redox potential ([5]; vs. NHE, E00 estimated using Eem): −1.45 V; E(Sen^+/0) oxidation potential ([5]; vs. ferrocene/ferrocenium): 0.32 V |
| 2.05 | NCC(=O)[O][Ir]([c]1ccc2ccccc2c1-c1nc2ccccc2s1)[c]1ccc2ccccc2c1-c1nc2ccccc2s1 [BSN-G, iridium(III) bis(2-(1-naphthyl)benzothiazolato-N,C^2)glycinate] | 0.54 ± 0.02 | 0.81 ± 0.06 | (2.1 ± 0.5) × 10^6 M^−1s^−1 | 606 | ΦΔ quantum yield for singlet oxygen generation ([1]; 355 nm excitation): 0.54 ± 0.02; ΦΔ355 nm ([1]; 355 nm excitation, measured in MeOD): 0.62 ± 0.05; ΦΔ quantum yield for singlet oxygen generation ([1]; 532 nm excitation): 0.81 ± 0.06; solubility remark (solubility; line marked measured in MeOD): Not soluble |
| – | O=C1C=Cc2cccc3cccc1c23 [Perinaphthenone] | – | – | – | – | ΦΔ of reference for quantum yield measurements [6]: 0.95 |
| – | c12c3c4c5c1c1c6c7c2c2c8c3c3c9c4c4c%10c5c5c1c1c6c6c%11c7c2c2c7c8c3c3c8c9c4c4c9c%10c5c5c1c1c6c6c%11c2c2c7c3c3c8c4c4c9c5c1c1c6c2c3c41 [Photosensitizer C60] | – | – | – | – | ΦΔ of reference for quantum yield measurements [6]: 0.76 |
| 2.23 | iridium(III) bis(2-phenylbenzothiazolato-N, C^2)pyridyl chloride [BT-py] | 0.95 ± 0.09 | 1.00 ± 0.09 | – | 558 | singlet oxygen quantum yield / production, in words [1]: high quantum yield; ΦΔ quantum yield for singlet oxygen generation ([1]; 355 nm excitation): 0.95 ± 0.09; ΦΔ quantum yield for singlet oxygen generation ([1]; 532 nm excitation): 1.00 ± 0.09; singlet oxygen quenching, in words [2]: no measurable singlet oxygen quenching; kq(^1O2) singlet oxygen quenching rate ([2]; benzene): None |
